Results published in ChEMBL document CHEMBL3046480, “Synthesis of damnacanthal, a naturally occurring 9,10-anthraquinone and its analogues, and its biological evaluation against five cancer cell lines” (Med Chem Res, 2013).
pIC50: −log10 of the molar value. Active and inactive are the calls of the source. The rule behind the calls is not given here.

Experiments:
[1] = Cytotoxicity against Homo sapiens (human) MES-SA/Dx5 cells assessed as inhibition of cell survival after 96 hr by MTT assay; format: functional, cell-based; conditions: for pIC50: Homo sapiens, MES-SA/Dx5, 96 h, read-out: IC50; for IC50: mes-sa/dx5
[2] = Antioxidant activity measured after 3 min by ferric thiocyanate method; format: functional
MES-SA = experiment: Cytotoxicity against Homo sapiens (human) MES-SA cells assessed as inhibition of cell survival after 96 hr by MTT assay; format: functional, cell-based; conditions: for pIC50: Homo sapiens, MES-SA, 96 h, read-out: IC50; for IC50: mes-sa
MCF7 = experiment: Cytotoxicity against Homo sapiens (human) MCF7 cells assessed as inhibition of cell survival after 96 hr by MTT assay; format: functional, cell-based; conditions: for pIC50: Homo sapiens, MCF7, 96 h, read-out: IC50; for IC50: mcf7
[3] = Cytotoxicity against Homo sapiens (human) H460 cells assessed as inhibition of cell survival after 96 hr by MTT assay; format: functional, cell-based, NCI-H460; conditions: for pIC50: Homo sapiens, NCI-H460, 96 h, read-out: IC50; for IC50: nci-h460
DU-145 = experiment: Cytotoxicity against Homo sapiens (human) DU145 cells assessed as inhibition of cell survival after 96 hr by MTT assay; format: functional, cell-based; conditions: for pIC50: Homo sapiens, DU-145, 96 h, read-out: IC50; for IC50: du-145
[4] = Antioxidant activity measured after 10 min by thiobarbituric acid method; format: functional

Row | Compound | pIC50 [1] | Activity [2] | pIC50 (MES-SA) | pIC50 (MCF7) | pIC50 [3] | pIC50 (DU-145) | IC50 [1] | IC50 (MES-SA) | IC50 [3] | IC50 (MCF7) | IC50 (DU-145) | Activity [4]
1 | COc1cc2c(c(OC)c1C(Br)Br)C(=O)c1ccccc1C2=O | 5.15 | inactive | 5.00 | 4.57 | 4.64 | 4.55 | – | – | – | – | – | –
2 | COc1cc2c(c(OC)c1CBr)C(=O)c1ccccc1C2=O | 5.70 | inactive | 5.70 | 5.10 | 5.30 | 5.40 | – | – | – | – | – | –
3 | CCOCc1c(O)cc2c(c1OC)C(=O)c1ccccc1C2=O | – | inactive | – | 4.46 | – | 4.30 | Not Active | Not Active | Not Active | – | – | –
4 | CCOCc1c(OC(C)=O)cc2c(c1OC)C(=O)c1ccccc1C2=O | – | inactive | – | 4.52 | – | 4.64 | Not Active | Not Active | Not Active | – | – | –
5 | O=C1c2ccccc2C(=O)c2c(Br)cc(O)cc21 | 4.54 | inactive | 4.25 | 4.57 | 4.37 | 4.36 | – | – | – | – | – | –
6 | COc1ccc(C)c2c1C(=O)c1ccccc1C2=O | – | inactive | 4.72 | 4.26 | 4.27 | 4.32 | Not Active | – | – | – | – | –
7 | Cc1cc(C(C)(C)C)c(O)c(C(C)(C)C)c1 | – | Active | – | – | – | – | – | – | – | – | – | –
8 | COc1c(C)c(OC(C)=O)cc2c1C(=O)c1ccccc1C2=O | – | inactive | – | 4.59 | – | 4.57 | Not Active | Not Active | Not Active | – | – | –
9 | COc1c(C=O)c(O)c(Br)c2c1C(=O)c1ccccc1C2=O | – | inactive | – | 4.72 | 4.49 | 4.47 | Not Active | Not Active | – | – | – | –
10 | O=C1c2ccccc2C(=O)c2cc(O)ccc21 [2-HYDROXYANTHRAQUINONE] | – | inactive | – | 4.16 | 4.18 | 4.14 | Not Active | Not Active | – | – | – | –
11 | O=C1c2ccccc2C(=O)c2c(O)cc(Br)cc21 | – | inactive | – | – | – | – | Not Active | Not Active | Not Active | Not Active | Not Active | –
12 | COc1ccc(OC)c2c1C(=O)c1ccccc1C2=O [1,4-DIMETHOXYANTHRAQUINONE] | – | inactive | – | 4.15 | 4.15 | 4.16 | Not Active | Not Active | – | – | – | –
13 | COc1cc2c(c(OC)c1C)C(=O)c1ccccc1C2=O | – | inactive | – | – | – | – | Not Active | Not Active | Not Active | Not Active | Not Active | –
14 | COc1ccc2c(c1)C(=O)c1ccccc1C2=O [2-METHOXYANTHRAQUINONE] | – | inactive | – | 4.17 | 4.17 | 4.15 | Not Active | Not Active | – | – | – | –
15 | O=C1c2ccccc2C(=O)c2c(O)ccc(O)c21 [QUINIZARIN] | – | inactive | – | – | – | – | Not Active | Not Active | Not Active | Not Active | Not Active | –
16 | O=Cc1c(O)cc2c(c1O)C(=O)c1ccccc1C2=O | – | Active | 4.74 | 4.44 | 4.40 | 4.38 | Not Active | – | – | – | – | Active

Row | Compound | pIC50 [1] | Activity [2] | pIC50 (MES-SA) | pIC50 (MCF7) | pIC50 [3] | pIC50 (DU-145) | IC50 [1] | IC50 (MES-SA) | IC50 [3] | IC50 (MCF7) | IC50 (DU-145) | Activity [4]
17 | COc1c(C=O)c(O)cc2c1C(=O)c1ccccc1C2=O [DAMNACANTHAL] | – | Active | – | 4.96 | 4.60 | 4.59 | Not Active | Not Active | – | – | – | Active
18 | Cc1ccc(O)c2c1C(=O)c1ccccc1C2=O | – | inactive | – | – | – | – | Not Active | Not Active | Not Active | Not Active | Not Active | –
19 | CCOCc1c(OC)cc2c(c1OC)C(=O)c1ccccc1C2=O | – | inactive | – | – | – | – | Not Active | Not Active | Not Active | Not Active | Not Active | –
20 | O=C1c2ccccc2C(=O)c2c(O)cc(O)cc21 [XANTHOPURPURIN] | 4.68 | inactive | 4.52 | 4.26 | 4.64 | 4.54 | – | – | – | – | – | –
21 | COc1cc2c(c(OC)c1C=O)C(=O)c1ccccc1C2=O | – | inactive | 5.30 | 4.26 | 4.19 | 4.49 | Not Active | – | – | – | – | –
22 | Cc1c(O)cc2c(c1O)C(=O)c1ccccc1C2=O [Rubiadin] | 4.46 | inactive | 4.42 | 4.25 | 4.38 | 4.49 | – | – | – | – | – | –
23 | O=C1c2ccccc2C(=O)c2cc(Br)c(O)cc21 | – | inactive | – | – | – | – | Not Active | Not Active | Not Active | Not Active | Not Active | –
24 | O=C1c2ccccc2C(=O)c2c(O)cccc21 [1-HYDROXYANTHRAQUINONE] | – | inactive | – | – | – | – | Not Active | Not Active | Not Active | Not Active | Not Active | –
25 | O=C1c2ccccc2C(=O)c2c1ccc(O)c2O | – | Active | – | – | – | – | – | – | – | – | – | Active
26 | VITAMIN E | – | Active | – | – | – | – | – | – | – | – | – | –
27 | O=C1c2ccccc2C(=O)c2c(Br)ccc(O)c21 | 4.70 | inactive | 4.85 | 4.44 | 4.70 | 4.57 | – | – | – | – | – | –
28 | COc1cc2c(c(O)c1CBr)C(=O)c1ccccc1C2=O | – | inactive | 5.40 | 4.47 | 4.52 | 4.59 | Not Active | – | – | – | – | –
29 | CC(=O)Oc1cc2c(c(O)c1C)C(=O)c1ccccc1C2=O | – | inactive | – | 4.25 | 4.17 | 4.43 | Not Active | Not Active | – | – | – | –
30 | COc1ccc(O)c2c1C(=O)c1ccccc1C2=O | – | inactive | – | 4.10 | 4.09 | 4.13 | Not Active | Not Active | – | – | – | –
31 | COc1c(CBr)c(OC(C)=O)cc2c1C(=O)c1ccccc1C2=O | – | inactive | – | 5.22 | 4.59 | 5.30 | Not Active | Not Active | – | – | – | –
32 | Cc1c(O)c(Br)c2c(c1O)C(=O)c1ccccc1C2=O | 4.52 | inactive | 4.70 | 4.55 | 4.72 | 4.51 | – | – | – | – | – | –
